Source: ChEMBL document CHEMBL1149950, “The synthesis and anti-hiv activity of pyrimidine dioxolanyl nucleosides” (Bioorg Med Chem Lett, 1993)

Experiments:
MT4 [1] = assay: Tested in vitro for the cytotoxic activity against uninfected MT-4 cells; format: functional, cell-based; settings: Homo sapiens
[2] = Tested in vitro for the antiviral assay in mitogen stimulated human peripheral blood mononuclear (PBM) cells infected with HIV-1 (strain LAV); format: functional
Vero = assay: Tested in vitro for the cytotoxic activity against uninfected Vero cells; format: functional, cell-based; settings: Chlorocebus sabaeus
[3] = Tested in vitro for the cytotoxic activity against uninfected human peripheral blood mononuclear (PBM) cells; format: functional
CCRF-CEM = assay: Tested in vitro for the cytotoxic activity against uninfected CEM cells; format: functional, cell-based; settings: Homo sapiens
MT4 [4] = assay: Tested in vitro for the cytotoxic activity against uninfected MT-4 cells at 200 uM; format: functional; settings: Homo sapiens

| Compound | EC50 [2] | IC50 (MT4 [1]) | IC50 (Vero) | IC50 [3] | IC50 (CCRF-CEM) | inhibition at 200 µM (MT4 [4]) |
| --- | --- | --- | --- | --- | --- | --- |
| O=c1[nH]c(=O)n(C2COC(CO)O2)cc1I (stereo not drawn) | > 100 µM | > 200 µM | > 100 µM | > 100 µM |  |  |
| O=c1ccn([C@H]2CO[C@@H](CO)O2)c(=O)[nH]1 | 57.5 µM | > 200 µM | > 100 µM | > 100 µM |  |  |
| Nc1ccn([C@H]2CO[C@@H](CO)O2)c(=O)n1 | 0.005 µM |  | 0.17 µM | > 100 µM | 0.08 µM | 66% |
| CCc1cn(C2COC(CO)O2)c(=O)[nH]c1=O (stereo not drawn) | > 100 µM |  | > 100 µM | > 100 µM |  | 30% |
| O=c1[nH]c(=O)n(C2COC(CO)O2)cc1C(F)(F)F (stereo not drawn) | 93 µM | > 200 µM | > 100 µM | > 100 µM |  |  |

Further lines, with some results ahead:

| EC50 [2] | Compound | IC50 (MT4 [1]) | IC50 (Vero) | IC50 [3] | IC50 (CCRF-CEM) | inhibition at 200 µM (MT4 [4]) |
| --- | --- | --- | --- | --- | --- | --- |
| 28.5 µM | O=c1[nH]c(=O)n([C@H]2CO[C@@H](CO)O2)cc1F |  | > 100 µM | > 100 µM | > 100 µM |  |
| 2.8 µM | O=c1[nH]c(=O)n([C@H]2CO[C@@H](CO)O2)cc1Br | > 200 µM | > 100 µM | > 100 µM |  |  |
| 1.7 µM | O=c1[nH]c(=O)n(C2COC(CO)O2)cc1Cl (stereo not drawn) | > 200 µM | > 100 µM | > 100 µM |  |  |
